Test results taken from ChEMBL document CHEMBL5223091, “Targeting the Mitotic Kinesin KIF18A in Chromosomally Unstable Cancers: Hit Optimization Toward an In Vivo Chemical Probe” (J Med Chem, 2022).

Experiments:
OVCAR-3 [1] = assay: Antiproliferative activity against human OVCAR-3 cells by nuclear count assay; type: functional, cell-based
[2] = Drug metabolism in mouse liver microsomes assessed as di-hydroxylate metabolite formation in presence of NADPH by LC-MS/MS analysis; type: ADME, Microsome
[3] = Metabolic stability in mouse liver microsomes assessed as intrinsic clearance at 0.5 uM incubated upto 40 mins by LCMS analysis; type: ADME, Microsome; conditions: read-out: CLH
OVCAR-3 [4] = assay: Induction of mitotic arrest in human OVCAR-3 cells assessed as p-histone H3 incubated for 24 hrs by mitotic - imaging assay; type: functional, cell-based; conditions: OVCAR-3, 24 h
[5] = target: T1, Kinesin-like protein KIF18A (Homo sapiens, UniProt Q8NI77); assay: Inhibition of recombinant His-tagged human KIF18A (1 to 467 residues) expressed in Trichoplusia ni insect cells assessed as inhibition of microtubule-stimulated ATPase activity preincubated for 30 mins followed by ATP addition and further incubated for 15 mins by ADP-Glo reagent based assay; design: species or system Insect cell
T1 sequence (Q8NI77 whole entry): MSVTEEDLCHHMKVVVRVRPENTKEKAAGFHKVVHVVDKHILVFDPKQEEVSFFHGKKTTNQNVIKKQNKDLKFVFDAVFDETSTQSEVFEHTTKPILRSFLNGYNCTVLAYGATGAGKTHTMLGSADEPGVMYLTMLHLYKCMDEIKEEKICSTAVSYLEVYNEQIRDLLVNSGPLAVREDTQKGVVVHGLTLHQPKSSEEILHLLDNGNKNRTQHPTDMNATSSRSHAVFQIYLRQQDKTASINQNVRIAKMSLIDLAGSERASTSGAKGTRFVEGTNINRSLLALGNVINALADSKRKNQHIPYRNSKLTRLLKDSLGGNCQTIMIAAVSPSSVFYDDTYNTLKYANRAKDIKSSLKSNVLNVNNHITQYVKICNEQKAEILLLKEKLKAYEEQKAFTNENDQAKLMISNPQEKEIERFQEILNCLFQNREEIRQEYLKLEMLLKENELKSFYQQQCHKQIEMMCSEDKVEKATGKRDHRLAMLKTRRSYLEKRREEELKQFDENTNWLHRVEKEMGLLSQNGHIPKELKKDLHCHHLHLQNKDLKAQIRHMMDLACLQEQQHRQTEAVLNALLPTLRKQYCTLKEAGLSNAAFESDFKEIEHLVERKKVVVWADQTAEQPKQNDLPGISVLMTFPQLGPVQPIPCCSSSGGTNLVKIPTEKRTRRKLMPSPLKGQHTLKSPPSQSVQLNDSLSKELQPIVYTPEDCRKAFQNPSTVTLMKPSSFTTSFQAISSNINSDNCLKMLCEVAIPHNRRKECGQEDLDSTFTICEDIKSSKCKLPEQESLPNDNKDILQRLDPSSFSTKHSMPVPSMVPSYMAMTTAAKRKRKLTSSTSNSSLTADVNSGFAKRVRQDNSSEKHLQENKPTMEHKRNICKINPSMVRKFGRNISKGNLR

[6] = Drug metabolism in mouse liver microsomes assessed as mono-hyoxylate metabolite formation in presence of NADPH by LC-MS/MS analysis; type: ADME, Microsome
[7] = Metabolic stability in human liver microsomes assessed as intrinsic clearance at 0.5 uM incubated upto 40 mins by LCMS analysis; type: ADME, Microsome; conditions: read-out: CLH
[8] = AUC (0 to 24 hrs) in CD-1 mouse xenografted with human OVCAR-3 cells at 100 mg/kg, ip by LC-MS/MS analysis; type: ADME, organism-based; design: dose 100 mg/kg, route ip; conditions: in vivo
[9] = Unbound fraction in CD-1 mouse plasma xenografted with human OVCAR-3 cells at 100 mg/kg, ip by LC-MS/MS analysis; type: ADME, organism-based
[10] = Cmax in CD-1 mouse xenografted with human OVCAR-3 cells at 100 mg/kg, ip by LC-MS/MS analysis; type: ADME, organism-based; design: dose 100 mg/kg, route ip; conditions: in vivo
[11] = Plasma concentration in CD-1 mouse xenografted with human OVCAR-3 cells at 100 mg/kg, ip measured upto 24 hrs by LC-MS/MS analysis; type: ADME, organism-based
OVCAR-3 [12] = assay: Antimitotic activity in human OVCAR-3 cells xenografted in CD-1 mouse assessed as fold increase in mitotic cells in tumor at 100 mg/kg, po measured after 24 hrs relative to control; type: functional
MDA-MB-157 = assay: Induction of mitotic arrest in TP53 mutant human MDA-MB-157 cells assessed as multipolar spindle arrays by measuring pericentriolar material incubated for 24 hrs by mitotic index assay; type: functional, cell-based; conditions: MDA-MB-157, 24 h
[13] = target: T2, Kinesin-like protein KIF11 (Homo sapiens, UniProt P52732); assay: Inhibition of recombinant GST-tagged human Eg5 assessed as inhibition of microtubule-stimulated ATPase activity preincubated for 30 mins followed by ATP addition and further incubated for 15 mins by ADP-Glo reagent based assay
T2 sequence (P52732 whole entry): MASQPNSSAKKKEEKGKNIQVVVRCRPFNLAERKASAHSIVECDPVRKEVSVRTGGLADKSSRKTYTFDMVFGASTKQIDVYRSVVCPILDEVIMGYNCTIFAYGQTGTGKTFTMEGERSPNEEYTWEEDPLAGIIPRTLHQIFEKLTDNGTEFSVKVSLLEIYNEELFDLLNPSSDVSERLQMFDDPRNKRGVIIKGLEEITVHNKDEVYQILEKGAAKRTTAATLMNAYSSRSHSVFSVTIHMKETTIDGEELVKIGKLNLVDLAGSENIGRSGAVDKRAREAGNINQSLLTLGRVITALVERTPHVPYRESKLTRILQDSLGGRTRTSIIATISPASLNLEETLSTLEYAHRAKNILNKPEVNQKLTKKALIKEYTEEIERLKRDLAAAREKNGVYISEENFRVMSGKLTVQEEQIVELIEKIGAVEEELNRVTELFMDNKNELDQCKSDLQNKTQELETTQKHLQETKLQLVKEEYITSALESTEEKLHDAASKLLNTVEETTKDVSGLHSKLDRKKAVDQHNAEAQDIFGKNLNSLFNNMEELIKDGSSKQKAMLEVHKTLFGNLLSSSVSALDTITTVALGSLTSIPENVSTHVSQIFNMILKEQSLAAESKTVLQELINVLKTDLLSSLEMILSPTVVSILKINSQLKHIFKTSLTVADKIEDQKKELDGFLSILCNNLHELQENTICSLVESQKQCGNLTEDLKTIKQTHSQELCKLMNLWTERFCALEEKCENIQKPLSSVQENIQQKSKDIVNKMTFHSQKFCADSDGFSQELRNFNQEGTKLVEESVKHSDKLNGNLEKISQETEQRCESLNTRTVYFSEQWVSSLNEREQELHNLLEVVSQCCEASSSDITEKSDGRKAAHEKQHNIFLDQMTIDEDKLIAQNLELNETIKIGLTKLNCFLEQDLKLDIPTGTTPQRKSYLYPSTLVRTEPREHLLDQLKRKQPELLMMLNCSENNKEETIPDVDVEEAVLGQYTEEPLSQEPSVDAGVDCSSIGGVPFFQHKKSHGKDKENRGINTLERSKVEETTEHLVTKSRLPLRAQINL

[14] = target: Centromere-associated protein E (Homo sapiens, UniProt Q02224); assay: Inhibition of recombinant GST-tagged human CENP-E assessed as inhibition of microtubule-stimulated ATPase activity preincubated for 30 mins followed by ATP addition and further incubated for 15 mins by ADP-Glo reagent based assay
[15] = Cmax in CD-1 mouse at 1 mg/kg, iv and 10 mg/kg, po; type: ADME, organism-based; design: dose 10 mg/kg, route po; conditions: in vivo
[16] = Volume of distribution at steady state in CD-1 mouse at 1 mg/kg, iv and 10 mg/kg, po; type: ADME, organism-based; conditions: in vivo
[17] = Unbound fraction in plasma (unknown origin) by ultracentrifugation; type: ADME, cell-free
[18] = Half life in CD-1 mouse at 1 mg/kg, iv and 10 mg/kg, po; type: ADME, organism-based; conditions: in vivo
[19] = Clearance in CD-1 mouse at 1 mg/kg, iv and 10 mg/kg, po; type: ADME, organism-based; conditions: in vivo
[20] = Oral bioavailability in CD-1 mouse at 10 mg/kg; type: ADME, organism-based; conditions: in vivo
[21] = Binding affinity to KIF18A- MT complex (unknown origin) by NMR based assay; design: species or system Homo sapiens
[22] = target: T1, Kinesin-like protein KIF18A; assay: Inhibition of KIF18A ATPase activity (unknown origin)
Tubulin = assay: Binding affinity to microtubule (unknown origin) by NMR based assay; type: protein-complex assay, Homo sapiens
[23] = target: T1, Kinesin-like protein KIF18A; assay: Binding affinity to KIF18A (unknown origin) by NMR based assay

Centromere-associated protein E, sequence (Q02224 whole entry): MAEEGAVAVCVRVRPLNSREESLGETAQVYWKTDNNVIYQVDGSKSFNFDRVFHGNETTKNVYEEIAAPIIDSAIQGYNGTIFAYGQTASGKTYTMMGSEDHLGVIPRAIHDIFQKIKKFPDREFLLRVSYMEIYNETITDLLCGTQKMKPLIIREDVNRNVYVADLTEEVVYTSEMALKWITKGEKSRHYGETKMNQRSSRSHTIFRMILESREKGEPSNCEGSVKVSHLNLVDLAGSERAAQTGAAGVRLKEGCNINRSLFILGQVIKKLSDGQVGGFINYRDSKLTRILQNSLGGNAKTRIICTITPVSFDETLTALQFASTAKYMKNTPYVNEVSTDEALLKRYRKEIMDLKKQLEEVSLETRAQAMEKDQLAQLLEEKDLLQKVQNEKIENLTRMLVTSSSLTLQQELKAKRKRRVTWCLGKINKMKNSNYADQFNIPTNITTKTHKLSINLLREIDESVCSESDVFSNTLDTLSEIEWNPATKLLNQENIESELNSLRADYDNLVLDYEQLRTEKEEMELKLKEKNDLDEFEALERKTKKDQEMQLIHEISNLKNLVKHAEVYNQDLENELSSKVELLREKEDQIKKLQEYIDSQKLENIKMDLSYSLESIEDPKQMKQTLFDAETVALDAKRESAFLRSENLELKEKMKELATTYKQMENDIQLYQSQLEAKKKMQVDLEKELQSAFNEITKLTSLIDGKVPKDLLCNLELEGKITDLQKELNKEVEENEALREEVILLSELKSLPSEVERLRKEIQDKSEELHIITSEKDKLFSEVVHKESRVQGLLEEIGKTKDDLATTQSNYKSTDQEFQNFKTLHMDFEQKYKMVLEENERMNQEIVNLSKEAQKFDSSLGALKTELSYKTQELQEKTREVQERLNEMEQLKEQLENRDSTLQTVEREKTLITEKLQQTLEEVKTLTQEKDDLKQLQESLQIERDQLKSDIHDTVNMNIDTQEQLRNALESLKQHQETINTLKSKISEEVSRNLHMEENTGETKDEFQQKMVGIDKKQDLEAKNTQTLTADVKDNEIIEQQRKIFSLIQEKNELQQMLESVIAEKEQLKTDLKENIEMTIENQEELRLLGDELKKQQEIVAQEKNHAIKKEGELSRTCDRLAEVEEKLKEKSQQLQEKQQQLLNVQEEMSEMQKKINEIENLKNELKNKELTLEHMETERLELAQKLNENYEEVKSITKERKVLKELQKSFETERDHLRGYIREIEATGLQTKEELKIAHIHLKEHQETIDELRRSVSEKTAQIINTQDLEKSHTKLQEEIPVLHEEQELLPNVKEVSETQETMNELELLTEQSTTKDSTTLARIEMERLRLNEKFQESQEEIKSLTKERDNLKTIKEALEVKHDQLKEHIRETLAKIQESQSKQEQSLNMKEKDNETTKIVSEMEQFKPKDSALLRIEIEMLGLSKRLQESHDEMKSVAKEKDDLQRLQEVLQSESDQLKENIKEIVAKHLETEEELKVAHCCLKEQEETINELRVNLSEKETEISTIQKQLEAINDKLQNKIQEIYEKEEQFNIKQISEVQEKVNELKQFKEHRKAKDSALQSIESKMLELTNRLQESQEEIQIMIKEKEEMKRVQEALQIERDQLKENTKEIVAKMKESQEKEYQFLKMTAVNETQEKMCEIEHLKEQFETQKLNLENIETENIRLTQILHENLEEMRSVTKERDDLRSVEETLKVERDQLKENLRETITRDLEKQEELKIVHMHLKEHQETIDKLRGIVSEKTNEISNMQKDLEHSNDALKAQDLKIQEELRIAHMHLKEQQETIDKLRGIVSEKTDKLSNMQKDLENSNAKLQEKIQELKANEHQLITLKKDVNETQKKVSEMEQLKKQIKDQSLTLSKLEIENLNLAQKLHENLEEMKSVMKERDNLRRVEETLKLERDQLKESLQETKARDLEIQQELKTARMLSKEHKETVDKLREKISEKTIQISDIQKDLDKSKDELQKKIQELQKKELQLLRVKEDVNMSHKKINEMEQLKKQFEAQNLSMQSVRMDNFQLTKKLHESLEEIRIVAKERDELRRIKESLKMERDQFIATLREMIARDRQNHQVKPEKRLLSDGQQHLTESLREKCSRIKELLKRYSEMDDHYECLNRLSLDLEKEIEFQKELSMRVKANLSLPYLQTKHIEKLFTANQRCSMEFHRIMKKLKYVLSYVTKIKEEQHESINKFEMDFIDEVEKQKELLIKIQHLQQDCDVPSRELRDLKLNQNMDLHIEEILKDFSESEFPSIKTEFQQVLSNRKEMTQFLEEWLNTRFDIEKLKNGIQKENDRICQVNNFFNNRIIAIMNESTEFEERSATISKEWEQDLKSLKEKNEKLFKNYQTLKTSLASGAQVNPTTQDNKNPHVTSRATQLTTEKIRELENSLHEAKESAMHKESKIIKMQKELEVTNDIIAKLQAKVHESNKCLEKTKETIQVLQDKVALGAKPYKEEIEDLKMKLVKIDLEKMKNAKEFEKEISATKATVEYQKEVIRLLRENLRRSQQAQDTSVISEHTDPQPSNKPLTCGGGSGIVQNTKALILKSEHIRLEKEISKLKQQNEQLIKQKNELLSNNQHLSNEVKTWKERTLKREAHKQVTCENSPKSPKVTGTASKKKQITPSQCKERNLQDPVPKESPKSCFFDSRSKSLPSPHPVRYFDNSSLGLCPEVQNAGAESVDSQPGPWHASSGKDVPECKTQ

Compound	EC50 (OVCAR-3 [1]) [nM]	microsomal CLint at 0.5 µM [3] [µL/min/mg]	EC50 (OVCAR-3 [4]) [nM]	IC50 [5] [nM]	microsomal CLint at 0.5 µM [7] [µL/min/mg]	also measured
O=C(Nc1cccc(S(=O)(=O)C2CCCC2)c1)c1cccnc1N1CCC2(CC1)CC2	1240	> 399	1870	410	> 399	Drug metabolism [2]: Metabolite_Detected; Drug metabolism [6]: Metabolite_Detected
CC(C)(C)NS(=O)(=O)c1cccc(NC(=O)c2ccc(NS(=O)(=O)C3(C)CC3)cc2N2CCC3(CC2)CC3)c1	11	90	11		90	AUC(0-t) [8]: 269 µM·h; fraction unbound [9]: 0.015; Cmax [10]: 26.5 µM; concentration at 24 h [11]: 0.8 µM
CC(C)(C)NS(=O)(=O)c1cccc(NC(=O)c2ccc(NS(C)(=O)=O)cc2N2CCC3(CC2)CC3)c1	16	81	16	28	79	AUC(0-t) [8]: 147 µM·h; fraction unbound [9]: 0.007; Cmax [10]: 12.6 µM; concentration at 24 h [11]: 2.9 µM
CC[C@@H]1C(=O)N(C)c2cnc(Nc3ccc(C(=O)NC4CCN(C)CC4)cc3OC)nc2N1C1CCCC1 [BI-2536]						fold change (FC) (OVCAR-3 [12]): >3
O=C(Nc1cccc(S(=O)(=O)C2CCCC2)c1)c1cccnc1N1CCCCC1	5030	> 399	6350	6160	> 399	IC50 (MDA-MB-157): 4800 nM; IC50 [13]: > 100000 nM; IC50 [14]: > 100000 nM
CC(C)(C)NS(=O)(=O)c1cccc(NC(=O)c2ccc(NC3(CO)CC3)cc2N2CCC3(CC2)CC3)n1	62	58	75	166	83	Cmax [15]: 5.45 µM; Vdss [16]: 0.3 L/kg; fraction unbound [17]: 0.011; half-life [18]: 1.5 h; CL [19]: 5 mL/min/kg; bioavailability [20]: 22%
C[C@H](NS(=O)(=O)c1cccc(NC(=O)c2ccc(NC(CO)CO)nc2N2CCC3(CC2)CC3)c1)C(F)(F)F				90		Kd [21]: 150 nM; IC50 [22]: 32000 nM; Kd (Tubulin): 25000 nM; Kd [23]: > 50000 nM
O=C(Nc1cccc(S(=O)(=O)N2CCCCC2)c1)c1cn[nH]c1-c1ccc(Cl)cc1		> 399		520	255	IC50 (MDA-MB-157): 8800 nM; IC50 [13]: > 100000 nM; IC50 [14]: > 100000 nM
CC(C)(C)NS(=O)(=O)c1cccc(NC(=O)c2ncc(NC(C)(C)CO)nc2N2CCC3(CC2)CC3)c1	110	76	190	135	74	Cmax [15]: 2.43 µM; Vdss [16]: 0.7 L/kg; fraction unbound [17]: 0.019; half-life [18]: 3.6 h; CL [19]: 5 mL/min/kg; bioavailability [20]: 13%
CC(C)(C)NS(=O)(=O)c1cccc(NC(=O)c2cccnc2N2CCC3(CC2)CC3)c1	840	> 399	1030	320	> 399	
O=C(Nc1cccc(S(=O)(=O)NC2CC2)c1)c1cccnc1N1CCC2(CC1)CC2	1790	> 399	2260	580	> 399	
